Laboratory results reported in patent US12139492B2 (Endotarget Inc., priority 2021, dated 2024).

Assays:
Type in all cases: cell-based
BTK = BTK (Homo sapiens, UniProt Q06187); test: BTK degradation, DC50 and Dmax of Table 1 (cell line not given); design: endogenous in cells; details: for DC50: concentration giving 50% reduction of BTK expression level
JeKo-1 cells = test: Antiproliferative effect, MTS cell viability assay, JeKo-1 cells; details: Homo sapiens; JeKo-1 mantle cell lymphoma cells; read-out: IC50 (anti-proliferation) JeKO-1 cells
Outline: (§1)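 Mino and JeKo-1 mantle B-cell lymphoma lines were exposed to compound at 0, 0.001, 0.01, 0.1, 1 and 10 μM for 72 h. Viability was read by MTS reduction to formazan, measured as absorbance at 490 nm.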

Mino cells = test: Antiproliferative effect, MTS cell viability assay, Mino cells; details: Homo sapiens, MINO, Mino mantle cell lymphoma cells; read-out: IC50 (anti-proliferation) Mino cells
Outline: as §1

Sequence of BTK (Q06187 whole entry): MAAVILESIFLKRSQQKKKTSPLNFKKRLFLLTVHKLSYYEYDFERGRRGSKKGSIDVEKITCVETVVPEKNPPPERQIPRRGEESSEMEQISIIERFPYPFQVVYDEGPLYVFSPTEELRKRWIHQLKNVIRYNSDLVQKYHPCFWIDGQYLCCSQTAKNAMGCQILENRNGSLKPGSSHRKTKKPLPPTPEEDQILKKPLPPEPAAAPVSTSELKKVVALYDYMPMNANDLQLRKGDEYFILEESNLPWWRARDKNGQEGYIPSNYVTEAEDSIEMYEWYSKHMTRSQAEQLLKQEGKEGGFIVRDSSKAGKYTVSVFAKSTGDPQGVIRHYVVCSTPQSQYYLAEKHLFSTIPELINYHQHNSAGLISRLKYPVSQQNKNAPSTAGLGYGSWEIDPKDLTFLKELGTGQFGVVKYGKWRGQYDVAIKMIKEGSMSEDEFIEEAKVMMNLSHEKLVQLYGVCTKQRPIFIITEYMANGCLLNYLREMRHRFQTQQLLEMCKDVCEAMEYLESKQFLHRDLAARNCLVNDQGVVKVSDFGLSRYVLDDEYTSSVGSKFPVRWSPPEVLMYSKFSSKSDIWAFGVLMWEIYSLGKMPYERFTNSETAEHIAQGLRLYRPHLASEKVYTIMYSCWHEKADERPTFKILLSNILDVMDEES

Row | SMILES | Dmax (BTK) | DC50 (BTK) | IC50 (JeKo-1 cells) | IC50 (Mino cells)
1 | Nc1ncnc2c1c(-c1ccc(Oc3ccccc3)cc1)nn2C1CCN(C(=O)N2CCC(CCCN3CCC(c4ccc5c(c4)C(=O)N(C4CCC(=O)NC4=O)C5=O)CC3)CC2)CC1 (stereo not shown) [Compound 127, 5-(1-(3-(1-(4-(4-amino-3-(4-phenoxyphenyl)-1H-pyrazolo[3,4-d]pyrimidin-1-yl)piperidine-1-carbonyl)piperidin-4-yl)propyl)piperidin-4-yl)-2-(2,6-dioxopiperidin-3-yl)isoindoline-1,3-dione] | > 90% | > 50 nM | > 10000 nM | 1000 to 10000 nM
2 | Nc1ncnc2c1c(-c1ccc(Oc3ccccc3)cc1)nn2C1CCN(C(=O)N2CCC(CCCC3CCN(c4ccc5c(c4)CN(C4CCC(=O)NC4=O)C5=O)CC3)CC2)CC1 (stereo not shown) [Compound 126, 3-(5-(4-(3-(1-(4-(4-amino-3-(4-phenoxyphenyl)-1H-pyrazolo[3,4-d]pyrimidin-1-yl)piperidine-1-carbonyl)piperidin-4-yl)propyl)piperidin-1-yl)-1-oxoisoindolin-2-yl)piperidine-2,6-dione] | > 90% | > 50 nM | > 10000 nM | 1000 to 10000 nM
3 | Nc1ncnc2c1c(-c1ccc(Oc3ccccc3)cc1)nn2[C@@H]1CCCN(CC2CCN(CCCC3CCN(c4ccc5c(c4)C(=O)N(C4CCC(=O)NC4=O)C5=O)CC3)CC2)C1 (stereo partly drawn) [Compound 141, 5-(4-(3-(4-(((R)-3-(4-amino-3-(4-phenoxyphenyl)-1H-pyrazolo[3,4-d]pyrimidin-1-yl)piperidin-1-yl)methyl)piperidin-1-yl)propyl)piperidin-1-yl)-2-(2,6-dioxopiperidin-3-yl)isoindoline-1,3-dione] | > 75% | > 50 nM | 1000 to 10000 nM | 1000 to 10000 nM
4 | Nc1ncnc2c1c(-c1ccc(Oc3ccccc3)cc1)nn2[C@@H]1CCCN(CC2CCN(CCC3CCN(c4ccc5c(c4)C(=O)N(C4CCC(=O)NC4=O)C5=O)CC3)CC2)C1 (stereo partly shown) [Compound 131] | > 75% | 10 to 50 nM | 1000 to 10000 nM | 1000 to 10000 nM
5 | Nc1ncnc2c1c(-c1ccc(Oc3ccccc3)cc1)nn2[C@@H]1CCCN(C2CCN(CCCN3CCN(c4ccc5c(c4)CN(C4CCC(=O)NC4=O)C5=O)CC3)CC2)C1 (stereo partly drawn) [Compound 152, 3-(5-(4-(3-((R)-3-(4-amino-3-(4-phenoxyphenyl)-1H-pyrazolo[3,4-d]pyrimidin-1-yl)-[1,4′-bipiperidin]-1′-yl)propyl)piperazin-1-yl)-1-oxoisoindolin-2-yl)piperidine-2,6-dione] | > 75% | > 50 nM | > 10000 nM | > 10000 nM
6 | Nc1ncnc2c1c(-c1ccc(Oc3ccccc3)cc1)nn2[C@@H]1CCCN(CC2CCN(CC3CCN(c4ccc5c(c4)C(=O)N(C4CCC(=O)NC4=O)C5=O)CC3)CC2)C1 (stereo partly drawn) [Compound 129, 5-(4-((4-(((R)-3-(4-amino-3-(4-phenoxyphenyl)-1H-pyrazolo[3,4-d]pyrimidin-1-yl)piperidin-1-yl)methyl)piperidin-1-yl)methyl)piperidin-1-yl)-2-(2,6-dioxopiperidin-3-yl)isoindoline-1,3-dione] | > 75% | 10 to 50 nM | > 10000 nM | > 10000 nM
7 | Nc1ncnc2c1c(-c1ccc(Oc3ccccc3)cc1)nn2[C@@H]1CCCN(CC2CCN(CCCC3CCN(c4ccc5c(c4)CN(C4CCC(=O)NC4=O)C5=O)CC3)CC2)C1 (stereo partly drawn) [Compound 142, 3-(5-(4-(3-(4-(((R)-3-(4-amino-3-(4-phenoxyphenyl)-1H-pyrazolo[3,4-d]pyrimidin-1-yl)piperidin-1-yl)methyl)piperidin-1-yl)propyl)piperidin-1-yl)-1-oxoisoindolin-2-yl)piperidine-2,6-dione] | > 75% | 10 to 50 nM | > 10000 nM | 1000 to 10000 nM
8 | Nc1ncnc2c1c(-c1ccc(Oc3ccccc3)cc1)nn2C1CCN(CCOCCC2CCN(c3ccc4c(c3)C(=O)N(C3CCC(=O)NC3=O)C4=O)CC2)CC1 (stereo not shown) [Compound 19, 5-(4-(2-(2-(4-(4-amino-3-(4-phenoxyphenyl)-1H-pyrazolo[3,4-d]pyrimidin-1-yl)piperidin-1-yl)ethoxy)ethyl)piperidin-1-yl)-2-(2,6-dioxopiperidin-3-yl)isoindoline-1,3-dione] | > 90% | 10 to 50 nM | 1000 to 10000 nM | 1000 to 10000 nM
9 | Nc1ncnc2c1c(-c1ccc(Oc3ccccc3)cc1)nn2[C@@H]1CCCN(C(=O)N2CCN(CCCC3CCN(c4ccc5c(c4)C(=O)N(C4CCC(=O)NC4=O)C5=O)CC3)CC2)C1 (stereo partly drawn) [Compound 109, 5-(4-(3-(4-((R)-3-(4-amino-3-(4-phenoxyphenyl)-1H-pyrazolo[3,4-d]pyrimidin-1-yl)piperidine-1-carbonyl)piperazin-1-yl)propyl)piperidin-1-yl)-2-(2,6-dioxopiperidin-3-yl)isoindoline-1,3-dione] | > 75% | > 50 nM | > 10000 nM | > 10000 nM

The next lines start with results.

Row | Dmax (BTK) | DC50 (BTK) | SMILES | IC50 (JeKo-1 cells) | IC50 (Mino cells)
10 | > 90% | 10 to 50 nM | Nc1ncnc2c1c(-c1ccc(Oc3ccccc3)cc1)nn2C1CCN(C(=O)N2CCN(CC3CCN(c4ccc5c(c4)C(=O)N(C4CCC(=O)NC4=O)C5=O)CC3)CC2)CC1 (stereo not shown) [Compound 87, 5-(4-((4-(4-(4-amino-3-(4-phenoxyphenyl)-1H-pyrazolo[3,4-d]pyrimidin-1-yl)piperidine-1-carbonyl)piperazin-1-yl)methyl)piperidin-1-yl)-2-(2,6-dioxopiperidin-3-yl)isoindoline-1,3-dione] | < 1000 nM | 1000 to 10000 nM
11 | > 90% | < 10 nM | Nc1ncnc2c1c(-c1ccc(Oc3ccccc3)cc1)nn2C1CCN(CCOCCOCCN2CCC(c3ccc4c(c3)C(=O)N(C3CCC(=O)NC3=O)C4=O)CC2)CC1 (stereo not shown) [Compound 9, 5-(1-(2-(2-(2-(4-(4-amino-3-(4-phenoxyphenyl)-1H-pyrazolo[3,4-d]pyrimidin-1-yl)piperidin-1-yl)ethoxy)ethoxy)ethyl)piperidin-4-yl)-2-(2,6-dioxopiperidin-3-yl)isoindoline-1,3-dione] | 1000 to 10000 nM | 1000 to 10000 nM
12 | > 90% | < 10 nM | Nc1ncnc2c1c(-c1ccc(Oc3ccccc3)cc1)nn2C1CCCN(CCOCCOCCC2CCN(c3ccc4c(c3)C(=O)N(C3CCC(=O)NC3=O)C4=O)CC2)C1 (stereo not shown) [Compound 21, 5-(4-(2-(2-(2-(3-(4-amino-3-(4-phenoxyphenyl)-1H-pyrazolo[3,4-d]pyrimidin-1-yl)piperidin-1-yl)ethoxy)ethoxy)ethyl)piperidin-1-yl)-2-(2,6-dioxopiperidin-3-yl)isoindoline-1,3-dione] | 1000 to 10000 nM | 1000 to 10000 nM
13 | > 90% | < 10 nM | Nc1ncnc2c1c(-c1ccc(Oc3ccccc3)cc1)nn2[C@@H]1CCCN(C(=O)N2CCC(CCN3CCN(c4ccc5c(c4)CN(C4CCC(=O)NC4=O)C5=O)CC3)CC2)C1 (stereo partly drawn) [Compound 64, 3-(5-(4-(2-(1-((R)-3-(4-amino-3-(4-phenoxyphenyl)-1H-pyrazolo[3,4-d]pyrimidin-1-yl)piperidine-1-carbonyl)piperidin-4-yl)ethyl)piperazin-1-yl)-1-oxoisoindolin-2-yl)piperidine-2,6-dione] | 1000 to 10000 nM | < 1000 nM
